Broadly, the IC50 is the concentration needed to halve the response being measured. For orientation: Ki means a dissociation constant, usually derived from enzyme kinetics or from competition with a known ligand. A lower Ki goes with a stronger hold on the target.

Drawing on patent US9067928B2 (Genentech, Inc., priority 2008, dated 2015), this text covers IC50 and Ki for 8 molecules.

The target in assay [1] is T1, Bcl-xL (Homo sapiens, UniProt Q07817).
T1 construct: made in house
Kind of assay: Alpha Screen Bcl-xL binding assay, competition with Bim26-mer. The conditions noted are these: values listed in the order of Table 1; read-out: Alphascreen results (IC50). As for the experimental part:
The measurement of competition of compounds of the invention with Bim26-mer for a Bcl-2 family protein binding site using an Alpha Screen Bcl-xL Binding Assay:
The BH3 proteins ALPHASCREEN™ assay was used to identify active small molecules Bcl-2 family protein screen. e.g., Bcl-xL, hmMcl-1 screen. To determine an accurate estimation of the IC50, the compounds were routinely tested at starting concentrations, 100 μM and/or 1 μM and serially titrated 3 fold over 11 dilutions.
The beads come in close proximity when the protein and the peptides interact. Donor beads contain a photosensitiser that converts oxygen to an excited form of O2 at an excitation of 680 nm. Energy is transformed from the singlet oxygen and reacts with chemiluminescers on the acceptor bead, resulting in light emission at 520-620 nm. […] With this information, the IC50 of each compound was calculated
GST-Bcl-xL, GST-hmMcl-1 and biotinylated GST proteins were prepared in-house and were stored as stock solutions at −80° C. The biotinylated-Bak, and biotinylated-Bim peptides were purchased from Auspep and were stored as 500 μM stock solutions in 100% DMSO at −80° C. The ALPHASCREEN™ GST (Glutathione-S-Transferase) Detection Kit was obtained from Perkin Elmer Lifesciences (Cat #6760603R). The Proxiplates, white 384 well flat-Bottom plates were purchased from Interpath Services, Melbourne (Cat #784075). The seals to cover the plates were purchased from Proscience. Melbourne (Cat#784075). DMSO was purchased from AnalaR. The 384 deep well plates and the Polypropylene 50 μL, V bottom polypropylene compound plates were purchased from Matrical.
Compounds of the invention were prepared as 10 mM stocks with 100% DMSO on the day prior to performing the assay. […] To achieve a final compound concentration of 1 μM, in a separate matrical plate, 28 μL of 100% DMSO and 2 μL of 10 mM compound was added to a well, mixed well. 2 μL of this solution was taken and added to 38 μL of 100% DMSO. 20 μL of this solution was added to the test matrical plate. Several control compounds were included in the test plates. For the control wells 15 μL 100% DMSO only was added to the appropriate wells of each plate. The compound plates were then serially diluted 2 fold using the MiniTrak. Once titrations were complete, the compound plate was immediately covered with a foil seal to prevent evaporation.
The assay and bead buffers were prepared fresh. Each titrated compound plate was assayed in duplicate. The following volumes were sufficient to run 12 Proxiplates (4 assay plates run in duplicate in each of Bclxl, hmMcl and counter assays)
Protein and Peptide Preparation; and Assay Performance • 1. The assay and bead buffers were used to prepare the acceptor and donor solutions. ALPHASCREEN™ beads are light sensitive and therefore prepared in a darkened room. 2.5 μL of beads were added per 1 mL of buffer. • 2. The volume of protein or peptide to add was calculated using the following formula:
[formula] • C1=Final Concentration of protein/peptide • C2=Stock Concentration of protein/peptide • V1=Total Volume of Acceptor/Donor Solution • V2=Volume of stock protein/Peptide to add to Acceptor/Donor solution • 3. The assay components were prepared as separate Acceptor and Donor Solutions. The Acceptor Solution contained Acceptor heads and target protein, while the Donor Solution contained Donor beads and biotinylated peptide.
• 4. After the solutions were prepared, they were left to incubate for 30 minutes at room temperature to allow the beads to bind to the protein and the peptide. • 5. 50 μL of Bcl-xL solution, 50 μL of hmMcl-1 solution and 50 µL of biotinylated-GST were added into separate deep wells on an assay plate. A control […]. Assay/Bead buffer was added separate well plates (no protein). • 6.
Background: Bead proximity is the source of the signal in Alpha formats.

Assay [2] addresses T1, Bcl-xL. The assay can be described thus: TR-FRET binding assay, competition with F-Bak for Bcl-xL binding site. The conditions noted are these: GST-Bcl-xL, F-Bak probe. The procedure: The measurement of competition of compounds of the invention with F-Bak for a Bcl-2 family protein (Bcl-xL) binding site using a Time Resolved Fluorescence Resonance Energy Transfer (TR-FRET) Binding Assay:
(§1) Test compounds were serially diluted in DMSO starting at 50 μM (2× starting concentration; 10% DMSO) and 10 μL transferred into a 384-well plate.
(§2) The samples are then mixed on a shaker for 1 minute then incubated for an additional 2 hours at room temperature. For each assay plate, a probe/antibody and protein/antibody/probe mixture were included as a negative and a positive control, respectively. Fluorescence was measured on the Envision (Perkin Elmer) using a 340/35 nm excitation filter and 520/525 (F-Bak) and 495/510 nm (Tb-labeled anti-his antibody) emission filters. Dissociation constants (Ki) were determined using Wang's equation (see, Wang, Z. X. An exact mathematical expression for describing competitive binding of two different ligands to a protein molecule. FEBS Lett. 1995 360:111-114). The TR-FRET assay can be performed in the presence of varying concentrations of human serum (HS) or fetal bovine serum (FBS).
(TR-FRET usually uses a lanthanide donor and a delayed reading to cut background.)

Assay [3] addresses T2, Bcl-2 (Homo sapiens, UniProt P10415).
T2 construct: made in house
The assay can be described thus: TR-FRET binding assay, competition with F-Bak for Bcl-2 binding site. The conditions noted are these: GST-Bcl-2, F-Bak probe. The procedure:
as §1, §2
For comparison, the measurement of the competition of compounds of the invention for other Bcl-2 family protein binding sites (e.g., Bcl-2, Mcl-1) using the TR-FRET binding assay was accomplish by substituting GST-Bcl-xL in the TR-FRET assay with other GST-labeled protein, e.g. GST-Bcl-2, GST-Mcl-1 prepared in-house.
For comparison, data (Ki in micromolar) from the measurement of the competition by certain compounds of the invention (i.e., compounds 1, 28, 38, 63, 71, 75, 80, 81, 92 and 94 in Table 1) with F-Bak for the Bcl-2 binding site using the TR-FRET binding assay are, 1.2, 0.15, 0.01, 0.018, 0.50, 0.272, 0.167, 0.66, 0.23 and 0.000003 respectively.

Molecules are shown by their SMILES.

T2 sequence (P10415 whole entry, species assumed): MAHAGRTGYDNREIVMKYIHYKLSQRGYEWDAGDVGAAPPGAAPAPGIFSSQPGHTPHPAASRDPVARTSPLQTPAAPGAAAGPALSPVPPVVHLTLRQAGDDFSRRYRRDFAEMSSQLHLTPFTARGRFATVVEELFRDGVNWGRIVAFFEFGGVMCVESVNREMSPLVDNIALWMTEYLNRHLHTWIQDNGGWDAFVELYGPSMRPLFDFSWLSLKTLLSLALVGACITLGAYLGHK
T1 sequence (Q07817 whole entry, species assumed): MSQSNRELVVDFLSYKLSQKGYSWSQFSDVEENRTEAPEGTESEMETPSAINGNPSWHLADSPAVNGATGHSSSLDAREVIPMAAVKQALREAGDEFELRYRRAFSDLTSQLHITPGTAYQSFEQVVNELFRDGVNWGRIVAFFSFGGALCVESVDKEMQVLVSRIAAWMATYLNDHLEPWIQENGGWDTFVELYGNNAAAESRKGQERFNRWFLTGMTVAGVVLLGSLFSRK

Consider `O=C(O)c1csc(-c2ccc3c(c2)N(C(=O)Nc2nc4ccccc4s2)CCC3)n1` [Example 1], for which, in assay [1], the IC50 turned out to be 360 nM. The inhibitory constant (Ki) in assay [2] came to 197 nM; in assay [3], 1200 nM.

As for `O=C(O)c1nc(-c2ccc3c(c2)N(C(=O)Nc2nc4ccccc4s2)CCC3)sc1Oc1ccccc1` [Example 63, 2-(1-(benzo[d]thiazol-2-ylcarbamoyl)-1,2,3,4-tetrahydroquinolin-7-yl)-5-phenoxythiazole-4-carboxylic acid], the IC50 in assay [1] was 50 nM. For the same molecule, the Ki in assay [2] came out at 12 nM; in assay [3], 18 nM.

For the molecule `O=C(O)c1ccc(-c2sc(-c3ccc4c(c3)N(C(=O)Nc3nc5ccccc5s3)CCO4)nc2C(=O)O)cc1` [Example 68, 2-(4-(benzo[d]thiazol-2-ylcarbamoyl)-3,4-dihydro-2H-benzo[b][1,4]oxazin-6-yl)-5-(4-carboxyphenyl)thiazole-4-carboxylic acid], the IC50 in assay [1] was 540 nM. In addition, affinity in assay [2] was put at a Ki of 470 nM.

`COc1ccc(-c2sc(-c3ccc4c(c3)N(C(=O)Nc3nc5ccccc5s3)CCC4)nc2C(=O)O)cc1` [Example 71, 2-(1-(benzo[d]thiazol-2-ylcarbamoyl)-1,2,3,4-tetrahydroquinolin-7-yl)-5-(4-methoxyphenyl)thiazole-4-carboxylic acid]: the IC50 in assay [1] was 40 nM. Besides, the Ki was found to be 7 nM in assay [2] and 500 nM in assay [3].

For `CCOc1ccc(-c2sc(-c3ccc4c(c3)N(C(=O)Nc3nc5ccccc5s3)CCC4)nc2C(=O)O)cc1` [Example 75, 2-(1-(benzo[d]thiazol-2-ylcarbamoyl)-1,2,3,4-tetrahydroquinolin-7-yl)-5-(4-ethoxyphenyl)thiazole-4-carboxylic acid], in assay [1], the IC50 is 7 nM. In addition, the Ki in assay [2] was found to be 1 nM; in assay [3] it was 272 nM.

For `CC(C)Oc1ccc(-c2sc(-c3ccc4c(c3)N(C(=O)Nc3nc5ccccc5s3)CCC4)nc2C(=O)O)cc1F` [Example 80, 2-(1-(benzo[d]thiazol-2-ylcarbamoyl)-1,2,3,4-tetrahydroquinolin-7-yl)-5-(3-fluoro-4-isopropoxyphenyl)thiazole-4-carboxylic acid], the IC50 in assay [1] turned out to be 6 nM. Besides, the figures for the Ki in assay [2] and in assay [3] were 0.7 nM and 167 nM, respectively.

Consider `COc1ccc(-c2sc(-c3ccc4c(c3)N(C(=O)Nc3nc5ccccc5s3)CCC4)nc2C(=O)N(C)C)cc1` [Example 81, 2-(1-(benzo[d]thiazol-2-ylcarbamoyl)-1,2,3,4-tetrahydroquinolin-7-yl)-5-(4-methoxyphenyl)-N,N-dimethylthiazole-4-carboxamide], for which the IC50 in assay [1] turned out to be 380 nM. Also, the Ki in assay [2] and in assay [3] was 660 nM in each case.

In the case of `O=C(O)c1nc(-c2ccc3c(c2)N(C(=O)Nc2nc4ccccc4s2)CCC3)sc1CCCOc1ccc(-n2ncc3cncnc32)cc1` [Example 94, 5-(3-(4-(1H-pyrazolo[3,4-d]pyrimidin-1-yl)phenoxy)propyl)-2-(1-(benzo[d]thiazol-2-ylcarbamoyl)-1,2,3,4-tetrahydroquinolin-7-yl)thiazole-4-carboxylic acid], in assay [1], the IC50 worked out at 0.5 nM. For the same molecule, the Ki in assay [2] and in assay [3] was 0.003 nM each time.
